Molecules are shown by their SMILES. Several values for one entry are separate records, joined by “and”; a condition that tells them apart may be missing. Equal entries are not always repeated.

Broadly, the melting point is the temperature of the solid-liquid transition. Regarding `Cc1cc(Cl)ccc1O` [4-chloro-2-methylphenol], the melting point turned out to be 47 °C.

For the compound `CC(=O)Oc1c(C)c(C)c2c(c1C)CC[C@@](C)(CCC[C@H](C)CCC[C@H](C)CCCC(C)C)O2` [vitamin e acetate], the melting point is -28 °C.

In turn, `C=CCCCCCCCCCCCCCCCCCC` [1-eicosene] returned a melting point of 29 °C.

Compound `CC(=O)NS(=O)(=O)c1ccc(N)cc1` [Sulfacetamide] displayed a melting point of 183 °C.

Consider `COCCOC` [1,2-dimethyloxyethane], for which the melting point was -58 °C.

In turn, `Cc1cc(C)cc(-c2cc(C)cc(C)c2)c1` [3,3',5,5'-tetramethylbiphenyl] had a melting point of 48 °C.

Regarding `NC(=O)Oc1ccccc1` [phenyl carbamate], the melting point was found to be 151 °C.

Compound `N#Cc1cccc(C=O)c1` [3-cyanobenzaldehyde] gave a melting point of 77 °C.

Turning to `Cc1ccc(O)cc1` [p-cresol], the melting point is 33 °C.

The compound `Cc1ccc2oc(-c3cccc(O)c3)cc(=O)c2c1` [3'-hydroxy-6-methylflavone] had a melting point of 205 °C.

`CCCCCCCS` [1-heptanethiol] returned a melting point of -43 °C.

For `C=C(C)C1CC=C(C)/C(=N/O)C1` (stereo unspecified) [(1E)-5-Isopropenyl-2-methyl-2-cyclohexen-1-one oxime], the melting point came out at 72 °C.

The compound `CN1/C(=C(\O)Nc2ccccn2)C(=O)c2ccccc2S1(=O)=O` [Piroxicam] came in with a melting point of 198 °C.

In the case of `CN(C)C(=S)Sc1ccc2ccccc2c1` [naphthalen-2-yl dimethyldithiocarbamate], the melting point came to 114 °C.

The compound `CC(=O)c1ccc2ccccc2c1` [2-acetylnaphthalene] yielded a melting point of 54 °C.

Turning to `CCCCC(C)=O` [2-hexanone], the melting point is -56 °C.

`CCC(=O)O` [propanoic_acid] gave a melting point of -21 °C.

With `Cc1cc(B(O)O)sc1C=O` [5-formyl-4-methylthiophene-2-boronic acid], the melting point was 119 °C.

For `c1ccc2c(c1)Cc1ccccc1-2` [fluorene], the melting point was 114 °C and 116 °C.

As to `N#Cc1ccc(C=O)cc1` [4-cyanobenzaldehyde], the melting point was 102 °C.

In turn, `ClC5(Cl)[C@]3(Cl)C(\Cl)=C(\Cl)[C@@]5(Cl)[C@H]4[C@H]1C[C@H]([C@@H]2O[C@H]12)[C@@H]34` [dieldrin] returned a melting point of 175 °C.

In turn, `O=C(O)c1cc(C(=O)O)c(C(=O)O)cc1C(=O)O` [pyromellitic acid] registered a melting point of 283 °C.

With `BrCCCCCBr` [1,5-dibromopentane], the melting point is -40 °C.

In turn, `OB(O)c1ccc(F)cc1C(F)(F)F` [4-fluoro-2-(trifluoromethyl)benzeneboronic acid] showed a melting point of 185 °C.

Compound `CCCCC1(CC)C(=O)NC(=O)NC1=O` [5-butyl-5-ethylbarbituric acid] registered a melting point of 128 °C.

For the compound `O=C(Oc1ccccc1)c1ccccc1O` [phenyl salicylate], the melting point stood at 42.2 °C.

The compound `O/N=C/C1=C(/C=C/c2ccccc2)CCC1` registered a melting point of 163 °C.

On to `CCCCCCCCCCCCCCCC` [N-hexadecane], for which the melting point came to 18 °C.

Compound `OB(O)c1ccccc1` [benzeneboronic acid] returned a melting point of 217 °C.

In the case of `Cc1cc(C)c(C)c(Br)c1C` [1-bromo-2,3,5,6-tetramethylbenzene], the melting point came out at 60 °C.

`COc1ccc(C(=O)O)cc1` [4-methoxybenzoic acid] gave a melting point of 184 °C.

`O=C(O)CC(S)C(=O)O` (stereo unspecified) [mercaptosuccinic acid] had a melting point of 152 °C.

As to `CO[Si](OC)(OC)OC` [tetramethoxysilane], the melting point was 5 °C.

`CCOC(=O)c1ccc(-n2c(C)cc(C=O)c2C)cc1` [OSM-S-46] showed a melting point of 113 °C.

The compound `O=C(c1ccc(F)cc1)c1ccc(F)cc1` [4,4'-difluorobenzophenone] displayed a melting point of 108 °C.

`O=C(O)c1ccc(-c2cccc([N+](=O)[O-])c2)cc1` [3'-nitrobiphenyl-4-carboxylic acid] registered a melting point of 314 °C.

`CC(=O)c1ccc2c(c1)CCO2` [5-acetyl-2,3-dihydrobenzo[b]furan] gave a melting point of 58 °C.

As to `Cc1cccc(O)c1C` [2,3-dimethylphenol], the melting point is 75 °C and 72.5 °C.

On to `Cc1ccc(Cl)c(N)c1` [2-chloro-5-methylaniline], for which the melting point was 32 °C.

`O=C(O)c1ccccc1Cl` [2-chlorobenzoic acid] registered a melting point of 140 °C.

Take `CCCC(C)(C)O` [2-methyl-2-pentanol]: the melting point is -102 °C.

In the case of `COCc1ccccc1` [benzyl_methyl_ether], the melting point was -52 °C.

For the compound `Cc1cc(Cl)c(C)cc1Cl` [2,5-dichloro-p-xylene], the melting point is 69 °C.

The compound `COc1ccc(C(=O)O)cc1` [4-Methoxybenzoic acid] registered a melting point of 184 °C.

For the compound `Nc1ccc(Br)cc1` [4-Bromoaniline], the melting point was 64 °C.

On to `CCC(=O)c1ccccc1` [propiophenone], for which the melting point is 19 °C.

Compound `O=C=NC1CCCCC1` [cyclohexyl isocyanate] registered a melting point of -80 °C.

Compound `COc1ccc(B(O)O)cc1C` [4-methoxy-3-methylbenzeneboronic acid] came in with a melting point of 215 °C.

Compound `CC1CCCCN1` (stereo unspecified) [2-methylpiperidine] returned a melting point of -4 °C.

`O=C1OC(c2ccccc2)=NC1=Cc1ccco1` [2-Oxazolin-5-one, 4-furfurylidene-2-phenyl-] displayed a melting point of 159 °C.

The compound `O=[N+]([O-])c1c(O)cccc1O` [2-nitroresorcinol] had a melting point of 83 °C.

For `CCCCCCCCCCCCCCCCCCCCCCCCCCCCCC` [N-triacontane], the melting point turned out to be 67 °C.

Regarding `COc1cc(NS(=O)(=O)c2ccc(N)cc2)nc(OC)n1` [Sulfadimethoxine], the melting point was determined as 204 °C.

For `CC(N)CCc1ccccc1` (stereo unspecified) [3-amino-1-phenylbutane], the melting point was -50 °C.

For `C=C(C)c1ccccc1` [2-phenyl-1-propene], the melting point is -23 °C.

With `CC(=O)c1ccc(N=C=S)cc1` [4-acetylphenyl isothiocyanate], the melting point stood at 79 °C.

The compound `O=Cc1cccnc1Cl` [2-chloropyridine-3-carboxaldehyde] showed a melting point of 52 °C.

Regarding `ClC1=C(Cl)C2(Cl)C3C4CC(C5OC45)C3C1(Cl)C2(Cl)Cl` (stereo unspecified) [Endrin], the melting point came to 210 °C.

In turn, `COc1cc(/C=C/C(=O)c2ccccc2O)ccc1O` [2',4-dihydroxy-3-methoxychalcone] showed a melting point of 128 °C.

In turn, `CCOC(=O)C(C#N)=c1sc(=C(C#N)C(=O)OCC)s1` [DIETHYL 2,2'-(1,3-DITHIETANE-2,4-DIYLIDENE)BIS(CYANOACETATE)] showed a melting point of 161 °C.

In turn, `CC12CCC(CC1=O)C2(C)C` (stereo unspecified) [camphor] showed a melting point of 174 °C.

`CCCCCCCCOc1cc(N(NC(=O)OC(C)(C)C)C(=O)OC(C)(C)C)cc(OCCCCCCCC)c1OCCCCCCCC`: the melting point was found to be 73.5 °C.

Take `O=C(O)C12CC3CC(CC(C3)C1)C2` [adamantane-1-carboxylic acid]: the melting point is 175 °C.

The compound `NC1CCCCC1` [cyclohexylamine] came in with a melting point of -18 °C.

In turn, `OB(O)c1ccc(Cl)cc1` [4-chlorobenzeneboronic acid] came in with a melting point of 273 °C.

With `CCOC(=O)CC(=O)OCC` [diethyl malonate], the melting point was -50 °C.

Consider `CCCOC(=O)c1ccc(O)cc1` [propyl paraben], for which the melting point is 97 °C and 96.5 °C (2×) and 96 °C.

`CN(CCCC(=O)c1cccnc1)N=O` [4-[Methyl(nitroso)amino]-1-(pyridin-3-yl)butan-1-one]: the melting point was determined as 72 °C.

`O=C(c1ccccc1)C(O)c1ccccc1` (stereo unspecified) [2-Hydroxy-1,2-diphenylethanone]: the melting point was 135 °C.

Turning to `CCc1ccccc1` [ethylbenzene], the melting point is -95 °C.

`CCc1ccc2ccccc2c1` [2-ethylnaphthalene]: the melting point is -7.35 °C.

In turn, `CC1(C)OC(=O)CC(=O)O1` [Meldrum's Acid] came in with a melting point of 98 °C.

Consider `O=C1c2ccccc2C(=O)c2ccccc21` [9,10-anthraquinone], for which the melting point came to 285 °C.

Compound `OC1CCCCCCCCCCC1` [cyclododecanol] registered a melting point of 78 °C.

`CCCCCCCCCCCCCO` [1-tridecanol]: the melting point came out at 34 °C.

On to `Clc1ccc(-c2nc3c4ccccc4ccn3n2)cc1` [lotrifen], for which the melting point stood at 238 °C.

Turning to `CC(=O)OC1=c2ccccc2=NC1c1ccccn1` (stereo unspecified) [2-pyridin-2-yl-1H-indol-3-yl acetate], the melting point worked out at 130 °C.

`O=Cc1ccccc1Br` [o-bromobenzaldehyde] registered a melting point of 22 °C.

In turn, `N[C@H](Cc1ccccc1F)C(=O)O` [2-fluoro-D-phenylalanine] displayed a melting point of 210 °C.

The compound `O=C(O)CCC(=O)O` [succinic_acid] gave a melting point of 188 °C.

`Sc1nc2ccccc2[nH]1` [2-mercaptobenzimidazole] registered a melting point of 303 °C.

Take `Cc1ccc(N2C(=O)C=CC2=O)cc1Cl` [1-(3-Chloro-4-methylphenyl)-1H-pyrrole-2,5-dione]: the melting point came to 140 °C.

The compound `O=Cc1cccc(B(O)O)c1` [3-formylbenzeneboronic acid] had a melting point of 111 °C.

On to `CN1CCN(CCCN2c3ccccc3Sc3ccccc32)CC1` [perazine], for which the melting point came to 53 °C.

In turn, `Cc1cccc(C(C)(C)C)c1` [3-tert-butyltoluene] registered a melting point of -41 °C.

As to `OCCOCCO` [diethylene glycol], the melting point was -10 °C.

Consider `CC(=O)/C=C/c1ccccc1` [trans-4-phenyl-3-buten-2-one], for which the melting point stood at 41 °C.

The compound `NNC(=O)c1ccncc1` [Isoniazid] registered a melting point of 171 °C.

As to `Cc1ccc(/N=N/c2ccc(N(C)C)cc2)cc1` [4-dimethylamino-4'-methylazobenzene], the melting point amounted to 166 °C.

In the case of `NNc1cc(Cl)ccc1Cl` [2,5-dichlorophenylhydrazine], the melting point worked out at 104 °C.

In turn, `Cc1ccc(Cl)c(Cl)c1` [3,4-dichlorotoluene] showed a melting point of -15 °C.

(Values after the Bradley open melting point set (2014).)
